{"source": "patent US5099030A", "about": "“Novel compounds, pharmaceutical compositions, and methods for treating inflammation and pain” (The Procter & Gamble Company, priority 1991, dated 1992)", "key": {"[1]": {"experiment": "Topical application to human forearm (Example X)", "type": "in vivo", "settings": "for local analgesic effect: replacing N-((4-(2-methyl-2-aminopropoxy)-3-methoxyphenyl)-methyl)-9Z-octadecenamide", "experimental": "A composition for topical administration is prepared by combining the following ingredients:\nThe octadecenamide is dissolved in a solution containing the other ingredients. Application of 0.4 ml of the resulting liquid to a 80 cm^2 portion of the forearm of a 60 kg human produces local analgesia which lasts approximately two days."}, "[2]": {"experiment": "Oral soft gelatin capsules in human (Example VIII)", "type": "in vivo", "settings": "two oral capsules, 225 mg of composition each, 60 kg human", "experimental": "(§1) A composition for oral administration is prepared by combining the following ingredients:\nThe octadecenamide is dissolved in the sesame oil with the aid of sonication and is packaged in soft gelatin capsules using methods known in the art."}, "[3]": {"experiment": "Oral syrup in human (Example IX)", "type": "in vivo", "settings": "one teaspoon of syrup, 70 kg adult human", "experimental": "as §1\nThe above ingredients are combined to produce a syrup and are packaged under sterile conditions in 6 oz. bottles."}, "[4]": {"experiment": "Mouse Abdominal Constriction Assay (phenylquinone writhing)", "type": "in vivo, male CF-1 mice", "settings": "for % Analgesia (3 hrs post-dose): 3 hrs post-dose (time of peak analgesic effect)", "experimental": "Compounds of the present invention are tested for analgesic activity using the mouse abdominal constriction assay. This assay is described in Hendershot and Forsaith, J. Pharmacol. Exo.\nMale CF-1 mice (Charles River Breeding Laboratories, Inc.), weighing approximately 20 grams and food fasted overnight, are used in these assays. Test compounds are prepared for oral (p.o.) or subcutaneous (s.c.) administration, with compounds of the present invention being prepared in acidified (1N acetic acid) distilled deionized water so that the appropriate dose is given in 0.2 mls to a 20 gram mouse.\nTen minutes after the i.p. injection of phenylquinone, the number of full body writhes are counted for the succeeding ten minutes. Percent analgesia in this assay is calculated as follows: [formula]"}, "Rodent Hot Plate Test": {"experiment": "Rodent Hot Plate Test", "type": "in vivo, male Sprague-Dawley rats", "experimental": "The degree of thermal analgesia obtained is determined using the \"rodent hot plate test\" (RHP). The RHP system is designed to detect and evaluate agents which elevate the threshold for the perception of pain. Classically, this method has been utilized primarily to evaluate opioid (narcotic) analgesic agents, such as morphine.\nMale Sprague-Dawley rats (Charles River Breeding Laboratories Inc.) weighing between 100 and 125 grams upon arrival are used to evaluate the compounds of the present invention. Animals are double housed in stainless steel cages, and are fed Purina Rat Chow and tap water ad libitum. The animals are food fasted the afternoon proceeding the day of the study, and food is returned 5 hours post-treatment. Animals not being dosed by oral gavage are not fasted.\nThe apparatus for evaluating analgesic activity consists of an insulated copper hot plate whose surface is maintained at 55°±0.5° C. by a circulating water bath. A bottomless glass container (12\" (30 cm) tall by 8\" (20 cm) diameter) is used to restrict the animal to a defined area of the hot plate. After dosing, the animal is placed through the top opening of the container, and a stop watch is started when the animal makes contact with the plate. The stop-watch is stopped upon either of the following visually observed end points: (1) licking or biting of either hind paw, or (2) jumping. If the jump is not successful but both hind paws leave the surface of the plate in an effort to jump, this is considered jumping. The stop-watch is stopped at the end point and the animal is immediately removed from the hot plate. The time (latency) between the initial contact of the animal on the hot plate and the endpoint is recorded.\nPrior to dosing, animals are tested on the hot plate. This is denoted as pretest or base line latency. Usually, the animals are dosed by oral gavage, using a 1 cubic cm glass syringe connected to a size 8 french catheter. The dose volume is 5 ml/kg. On occasion, the animals are dosed by either subcutaneous administration or intravenous injection. Using the subcutaneous administration, a 1 ml tuberculin syringe is connected to a 25 gauge 5/8 inch needle, and injected under the skin in the neck or back region. For intravenous dosing, a 1 ml tuberculin syringe is connected to a 25 gauge 3/4 inch winged infusion set, and injected into the tail vein. The dose volume for subcutaneous and intravenous routes is 1 ml/kg. The latency times are typically recorded at 1.5, 3, 5, and 24 hours post-treatment. Much shorter times are recorded for an intravenous administration."}, "[5]": {"settings": "0.4 ml to 80 cm^2 of forearm, 60 kg human"}}, "data": [{"smiles": "CCCCCCCC/C=C\\CCCCCCCC(=O)NCc1ccc(OCC(N)C(=O)O)c(OC)c1", "note": "(centres unmarked) [N-((4-(2-amino-2-carboxyethoxy)-3-methoxyphenyl)-methyl)-9Z-octadecenamide]", "values": [{"measurement": "local analgesic effect", "setting": "[1]", "result": "substantially similar local analgesic effect"}, {"measurement": "analgesia", "setting": "[2]", "result": "increased analgesic effect"}, {"measurement": "reduction of inflammation", "setting": "[2]", "result": "substantially similar reduction of inflammation"}, {"measurement": "analgesia", "setting": "[3]", "result": "substantially similar reduction of inflammation and analgesic effect"}, {"measurement": "reduction of inflammation", "setting": "[3]", "result": "substantially similar reduction of inflammation"}]}, {"smiles": "CCCCCCCC/C=C\\CCCCCCCC(=O)NCc1ccc(OCC(C)(C)N)c(OC)c1", "note": "[N-((4-(2-methyl-2-aminopropoxy)-3-methoxyphenyl)-methyl)-9Z-octadecenamide]", "values": [{"measurement": "duration of local analgesia", "setting": "[1]; [5]", "result": "approximately two"}, {"measurement": "skin irritation", "setting": "[1]; [5]", "result": "Little or no skin irritation"}, {"measurement": "analgesia", "setting": "[2]", "result": "increased analgesic effect"}, {"measurement": "reduction of inflammation", "setting": "[2]", "result": "substantially similar reduction of inflammation"}]}, {"smiles": "CCCCCCCCC(=O)NCc1ccc(OCC(C)(C)N)c(OC)c1", "note": "[N-((4-(2-methyl-2-aminopropoxy)-3-methoxyphenyl)-methyl)-nonanamide]", "values": [{"measurement": "local analgesic effect", "setting": "[1]", "result": "substantially similar local analgesic effect"}]}, {"smiles": "CCCCCCCC/C=C\\CCCCCCCC(=O)NCc1ccc(OC[C@@H](N)C(C)C)c(OC)c1", "note": "[N-((4-(2(S)-amino-3-methylbutoxy)-3-methoxyphenyl)methyl)-9Z-octadecenamide]", "values": [{"measurement": "local analgesic effect", "setting": "[1]", "result": "substantially similar local analgesic effect"}, {"measurement": "analgesia", "setting": "[2]", "result": "increased analgesic effect"}, {"measurement": "reduction of inflammation", "setting": "[2]", "result": "substantially similar reduction of inflammation"}, {"measurement": "analgesia", "setting": "[3]", "result": "substantially similar reduction of inflammation and analgesic effect"}, {"measurement": "reduction of inflammation", "setting": "[3]", "result": "substantially similar reduction of inflammation"}]}, {"smiles": "CCCCCCCCNC(=O)Cc1ccc(OCCN)c(OC)c1", "note": "[N-octanyl-4-(2-aminoethoxy)-3-methoxyphenylacetamide]", "values": [{"measurement": "local analgesic effect", "setting": "[1]", "result": "substantially similar local analgesic effect"}, {"measurement": "analgesia", "setting": "[2]", "result": "increased analgesic effect"}, {"measurement": "reduction of inflammation", "setting": "[2]", "result": "substantially similar reduction of inflammation"}, {"measurement": "analgesia", "setting": "[3]", "result": "substantially similar reduction of inflammation and analgesic effect"}, {"measurement": "reduction of inflammation", "setting": "[3]", "result": "substantially similar reduction of inflammation"}]}, {"smiles": "CCCCCCCC/C=C\\CCCCCCCC(=O)NCc1ccc(O)c(OC)c1", "note": "[N-Vanillyloleamide, N-vanillyloleamide, reference compound]", "values": [{"measurement": "% Analgesia (3 hrs post-dose)", "setting": "[4]; 0.75 mg/kg subcutaneous", "result": 35.4, "unit": "%"}, {"measurement": "% Analgesia (3 hrs post-dose)", "setting": "[4]; 1.5 mg/kg subcutaneous", "result": 62.8, "unit": "%"}, {"measurement": "% Analgesia (3 hrs post-dose)", "setting": "[4]; 2.25 mg/kg subcutaneous", "result": 76.1, "unit": "%"}, {"measurement": "% Analgesia (3 hrs post-dose)", "setting": "[4]; 100 mg/kg oral", "result": 36, "unit": "%"}, {"measurement": "% Analgesia (3 hrs post-dose)", "setting": "[4]; 200 mg/kg oral", "result": 60, "unit": "%"}, {"measurement": "% Analgesia (3 hrs post-dose)", "setting": "[4]; 400 mg/kg oral", "result": 79, "unit": "%"}, {"measurement": "time of peak analgesic effect", "setting": "[4]; mouse, in vivo", "result": 3, "unit": "hours post-dose"}]}, {"smiles": "COc1ccc2c3c1O[C@H]1[C@@H](O)C=C[C@H]4[C@@H](C2)N(C)CC[C@@]341", "note": "[Codeine Phosphate, reference compound]", "values": [{"measurement": "Mean Latency Times", "setting": "Rodent Hot Plate Test; 50 mg/kg oral, 1 hr post dose", "result": 8.7, "unit": "s"}, {"measurement": "Mean Latency Times", "setting": "Rodent Hot Plate Test; 50 mg/kg oral, 2 hr post dose", "result": 6.4, "unit": "s"}, {"measurement": "Mean Latency Times", "setting": "Rodent Hot Plate Test; 50 mg/kg oral, 4 hr post dose", "result": 6.5, "unit": "s"}, {"measurement": "Mean Latency Times", "setting": "Rodent Hot Plate Test; 100 mg/kg oral, 1 hr post dose", "result": 8.5, "unit": "s"}, {"measurement": "Mean Latency Times", "setting": "Rodent Hot Plate Test; 100 mg/kg oral, 2 hr post dose", "result": 8.9, "unit": "s"}, {"measurement": "Mean Latency Times", "setting": "Rodent Hot Plate Test; 100 mg/kg oral, 4 hr post dose", "result": 6.0, "unit": "s"}, {"measurement": "Mean Latency Times", "setting": "Rodent Hot Plate Test; 200 mg/kg oral, 1 hr post dose", "result": 16.9, "unit": "s"}, {"measurement": "Mean Latency Times", "setting": "Rodent Hot Plate Test; 200 mg/kg oral, 2 hr post dose", "result": 21.0, "unit": "s"}, {"measurement": "Mean Latency Times", "setting": "Rodent Hot Plate Test; 200 mg/kg oral, 4 hr post dose", "result": 11.7, "unit": "s"}, {"measurement": "Mean Latency Times", "setting": "Rodent Hot Plate Test; 400 mg/kg oral, 1 hr post dose", "result": 26.5, "unit": "s"}, {"measurement": "Mean Latency Times", "setting": "Rodent Hot Plate Test; 400 mg/kg oral, 2 hr post dose", "result": 28.4, "unit": "s"}, {"measurement": "Mean Latency Times", "setting": "Rodent Hot Plate Test; 400 mg/kg oral, 4 hr post dose", "result": 24.6, "unit": "s"}]}, {"smiles": "CCCCCCCC/C=C\\CCCCCCCC(=O)NCc1ccc(OCCC(C)COCC(C)(C)N)c(OC)c1", "note": "(centres unmarked) [N-((4-(2-methyl-2-aminopropoxy)-3-methylbutoxy)-3-methoxyphenyl)methyl)-9Z-octadecenamide]", "values": [{"measurement": "analgesia", "setting": "[3]", "result": "substantially similar reduction of inflammation and analgesic effect"}, {"measurement": "reduction of inflammation", "setting": "[3]", "result": "substantially similar reduction of inflammation"}]}, {"smiles": "CCCCCCCC/C=C\\CCCCCCCC(=O)NCc1ccc(OCC(N)CO)c(OC)c1", "note": "(centres unmarked) [N-((4-(2-amino-3-hydroxypropoxy)-3-methoxyphenyl)-methyl)-9Z-octadecenamide]", "values": [{"measurement": "local analgesic effect", "setting": "[1]", "result": "substantially similar local analgesic effect"}, {"measurement": "analgesia", "setting": "[2]", "result": "increased analgesic effect"}, {"measurement": "reduction of inflammation", "setting": "[2]", "result": "substantially similar reduction of inflammation"}, {"measurement": "analgesia", "setting": "[3]", "result": "substantially similar reduction of inflammation and analgesic effect"}, {"measurement": "reduction of inflammation", "setting": "[3]", "result": "substantially similar reduction of inflammation"}]}, {"smiles": "CCCCCCCCC(=O)NCc1ccc(OCCN)c(OC)c1", "note": "[N-((4-(2-aminoethoxy)-3-methoxyphenyl)-methyl)-nonanamide]", "values": [{"measurement": "analgesia", "setting": "[2]", "result": "increased analgesic effect"}, {"measurement": "reduction of inflammation", "setting": "[2]", "result": "substantially similar reduction of inflammation"}, {"measurement": "analgesia", "setting": "[3]", "result": "substantially similar reduction of inflammation and analgesic effect"}, {"measurement": "reduction of inflammation", "setting": "[3]", "result": "substantially similar reduction of inflammation"}, {"measurement": "Mean Latency Times", "setting": "Rodent Hot Plate Test; 50 mg/kg oral, 3 hr post dose", "result": 7.5, "unit": "s"}, {"measurement": "Mean Latency Times", "setting": "Rodent Hot Plate Test; 50 mg/kg oral, 5 hr post dose", "result": 7.2, "unit": "s"}, {"measurement": "Mean Latency Times", "setting": "Rodent Hot Plate Test; 50 mg/kg oral, 24 hr post dose", "result": 8.1, "unit": "s"}, {"measurement": "Mean Latency Times", "setting": "Rodent Hot Plate Test; 100 mg/kg oral, 3 hr post dose", "result": 9.9, "unit": "s"}, {"measurement": "Mean Latency Times", "setting": "Rodent Hot Plate Test; 100 mg/kg oral, 5 hr post dose", "result": 10.2, "unit": "s"}, {"measurement": "Mean Latency Times", "setting": "Rodent Hot Plate Test; 100 mg/kg oral, 24 hr post dose", "result": 12.3, "unit": "s"}, {"measurement": "Mean Latency Times", "setting": "Rodent Hot Plate Test; 200 mg/kg oral, 3 hr post dose", "result": 10.8, "unit": "s"}, {"measurement": "Mean Latency Times", "setting": "Rodent Hot Plate Test; 200 mg/kg oral, 5 hr post dose", "result": 16.4, "unit": "s"}, {"measurement": "Mean Latency Times", "setting": "Rodent Hot Plate Test; 200 mg/kg oral, 24 hr post dose", "result": 22.0, "unit": "s"}, {"measurement": "Mean Latency Times", "setting": "Rodent Hot Plate Test; 300 mg/kg oral, 3 hr post dose", "result": 14.1, "unit": "s"}, {"measurement": "Mean Latency Times", "setting": "Rodent Hot Plate Test; 300 mg/kg oral, 5 hr post dose", "result": 14.6, "unit": "s"}, {"measurement": "Mean Latency Times", "setting": "Rodent Hot Plate Test; 300 mg/kg oral, 24 hr post dose", "result": 20.3, "unit": "s"}]}]}
